Assay results taken from patent US20230146675A1, “PYRIMIDO[5,4-d]PYRIMIDINE DERIVATIVES AS ENT INHIBITORS FOR THE TREATMENT OF CANCERS, AND COMBINATION THEREOF WITH ADENOSINE RECEPTOR ANTAGONISTS” (ITEOS BELGIUM SA, priority 2020, published 2023).

Molecular target: T1, human ENT1 (Homo sapiens, UniProt Q99808)
T1 sequence (Q99808 1-456): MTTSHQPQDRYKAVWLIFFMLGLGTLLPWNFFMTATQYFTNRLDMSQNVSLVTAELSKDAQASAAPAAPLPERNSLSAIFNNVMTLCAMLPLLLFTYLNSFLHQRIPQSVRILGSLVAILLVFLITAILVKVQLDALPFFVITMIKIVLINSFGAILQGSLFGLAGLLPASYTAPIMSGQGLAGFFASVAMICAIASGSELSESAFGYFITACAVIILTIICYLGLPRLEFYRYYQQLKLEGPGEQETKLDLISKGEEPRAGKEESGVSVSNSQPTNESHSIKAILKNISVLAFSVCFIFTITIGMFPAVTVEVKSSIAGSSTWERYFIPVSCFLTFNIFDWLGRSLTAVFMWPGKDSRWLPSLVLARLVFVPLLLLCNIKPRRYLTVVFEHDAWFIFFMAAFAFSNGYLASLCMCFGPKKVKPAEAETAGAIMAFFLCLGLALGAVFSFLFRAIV
Experiment: ENT1 binding assay (competition with Sahenta-DY647 on JAR cells)
Design: JAR cells expressing ENT1 were bought from ATCC; host or cells: JAR cells
Conditions: binned IC50
Outline: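 JAR cells were incubated with test compounds and the fluorescent ligand Sahenta-DY647 in competition. Plates were washed twice by centrifugation (4 min, 400 rcf, 4 °C). Binding potency was derived from the final fluorescence.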

| IC50 [nM] | Compound |
| --- | --- |
| < 100 | COCCN(CCOC)c1nc(N2CCN(C)C(=O)C2)c2nc(N(CCOC)CCOC)nc(N(C)Cc3cccc(OC)c3)c2n1 [Compound 235, 4-(2,6-bis(bis(2-methoxyethyl)amino)-8-((3-methoxybenzyl)(methyl)amino)pyrimido[5,4-d]pyrimidin-4-yl)-1-methylpiperazin-2-one] |
| < 100 | COCCN(CCOC)c1nc(N2CCN(C)C(=O)C2)c2nc(N(CCOC)CCOC)nc(NCc3cccc(C#N)c3)c2n1 [Compound 205, 3-(((2,6-bis(bis(2-methoxyethyl)amino)-8-(4-methyl-3-oxopiperazin-1-yl)pyrimido[5,4-d]pyrimidin-4-yl)amino)methyl)benzonitrile] |
| 100 to 500 | CCCNc1nc(N(CCOC)CCOC)nc2c(N3CCN(C)C(=O)C3)nc(N(CCOC)CCOC)nc12 [Compound 214, 4-(2,6-bis(bis(2-methoxyethyl)amino)-8-(propylamino)pyrimido[5,4-d]pyrimidin-4-yl)-1-methylpiperazin-2-one] |
| 500 to 1000 | COCCN(CCOC)c1nc(N2CCNC(=O)C2)c2nc(N(CCOC)CCOC)nc(N3CCC(OC)CC3)c2n1 [Compound 70, 4-(2,6-bis(bis(2-methoxyethyl)amino)-8-(4-methoxypiperidin-1-yl)pyrimido[5,4-d]pyrimidin-4-yl)piperazin-2-one] |
| < 100 | COCCN(CCOC)c1nc(N2CCC(OC)CC2)c2nc(N(CCO)Cc3ccc(OC)c(OC)c3OC)nc(N3CCC(OC)CC3)c2n1 [Compound 185, 2-((6-(bis(2-methoxyethyl)amino)-4,8-bis(4-methoxypiperidin-1-yl)pyrimido[5,4-d]pyrimi<din-2-yl)(2,3,4-trimethoxybenzyl)amino)ethanol] |
| 100 to 500 | COCCN(CCOC)c1nc(N2CCOC(C)C2)c2nc(N(CCOC)CCOC)nc(N3CCC(OC)CC3)c2n1 (stereo not drawn) [Compound 113, N2,N2,N6,N6-tetrakis(2-methoxyethyl)-4-(4-methoxypiperidin-1-yl)-8-(2-methylmorpholino)pyrimido[5,4-d]pyrimidine-2,6-diamine] |
| 500 to 1000 | COCCNc1nc(N(CCOC)CCOC)nc2c(N3CCC(OC)CC3)nc(N(CCOC)CCOC)nc12 [Compound 128, N2,N2,N4,N6,N6-pentakis(2-methoxyethyl)-8-(4-methoxypiperidin-1-yl)pyrimido[5,4-d]pyrimidine-2,4,6-triamine] |
| 100 to 500 | COCCN(CCO)c1nc(N2CCN(C)C(=O)C2)c2nc(N(CCO)CCOC)nc(N3CCC(OC)CC3)c2n1 [Compound 306, 4-(2,6-bis((2-hydroxyethyl)(2-methoxyethyl)amino)-8-(4-methoxypiperidin-1-yl)pyrimido[5,4-d]pyrimidin-4-yl)-1-methylpiperazin-2-one] |
| 100 to 500 | COCCN(CCOC)c1nc(N2CC(OC)C2)c2nc(N(CCOC)CCOC)nc(N3CCC(OC)CC3)c2n1 [Compound 86, 4-(3-methoxyazetidin-1-yl)-N2,N2,N6,N6-tetrakis(2-methoxyethyl)-8-(4-methoxypiperidin-1-yl)pyrimido[5,4-d]pyrimidine-2,6-diamine] |
| 100 to 500 | COCCN(CCOC)c1nc(N2CCC(OC)CC2)c2nc(N(CCOC)CCOC)nc(NCCc3ccncc3)c2n1 [Compound 64, N2,N2,N6,N6-tetrakis(2-methoxyethyl)-8-(4-methoxypiperidin-1-yl)-N4-(2-(pyridin-4-yl)ethyl)pyrimido[5,4-d]pyrimidine-2,4,6-triamine] |
| 100 to 500 | COCCN(CCOC)c1nc(N2CC(CO)C2)c2nc(N(CCOC)CCOC)nc(N3CCC(OC)CC3)c2n1 [Compound 92, (1-(2,6-bis(bis(2-methoxyethyl)amino)-8-(4-methoxypiperidin-1-yl)pyrimido[5,4-d]pyrimidin-4-yl)azetidin-3-yl)methanol] |
| 500 to 1000 | COCCN(CCOC)c1nc(N2CCN(c3ncn(C)n3)CC2)c2nc(N(CCOC)CCOC)nc(N(C)Cc3cccc(Cl)c3)c2n1 [Compound 242, N4-(3-chlorobenzyl)-N2,N2,N6,N6-tetrakis(2-methoxyethyl)-N4-methyl-8-(4-(1-methyl-1H-1,2,4-triazol-3-yl)piperazin-1-yl)pyrimido[5,4-d]pyrimidine-2,4,6-triamine] |
| 100 to 500 | CCCN(C)c1nc(N(CCOC)CCOC)nc2c(N3CCN(C)C(=O)C3)nc(N(CCOC)CCOC)nc12 [Compound 191, 4-(2,6-bis(bis(2-methoxyethyl)amino)-8-(methyl(propyl)amino)pyrimido[5,4-d]pyrimidin-4-yl)-1-methylpiperazin-2-one] |
| 500 to 1000 | COCCN(CCOC)c1nc(N2CCC(OC)CC2)c2nc(N(CCOC)CCOC)nc(NCc3nccs3)c2n1 [Compound 58, N2,N2,N6,N6-tetrakis(2-methoxyethyl)-8-(4-methoxypiperidin-1-yl)-N4-(thiazol-2-ylmethyl)pyrimido[5,4-d]pyrimidine-2,4,6-triamine] |
| 500 to 1000 | COCCN(CCOC)c1nc(N2CCC(OC)CC2)c2nc(N3CCN(S(C)(=O)=O)CC3)nc(N3CCC(OC)CC3)c2n1 [Compound 30, N,N-bis(2-methoxyethyl)-4,8-bis(4-methoxypiperidin-1-yl)-6-(4-(methylsulfonyl)piperazin-1-yl)pyrimido[5,4-d]pyrimidin-2-amine] |
| < 100 | COCCN(Cc1ccc(OC)c(OC)c1OC)c1nc(N2CCN(C)C(=O)C2)c2nc(N(CCO)CCO)nc(N3CCC(OC)CC3)c2n1 [Compound 305, 4-(6-(bis(2-hydroxyethyl)amino)-2-((2-methoxyethyl)(2,3,4-trimethoxybenzyl)amino)-8-(4-methoxypiperidin-1-yl)pyrimido[5,4-d]pyrimidin-4-yl)-1-methylpiperazin-2-one] |
| 500 to 1000 | COCCN(CCOC)c1nc(N2CCC(OC)CC2)c2nc(N(CCOC)CCOC)nc(N(C)CCc3ccccn3)c2n1 [Compound 83, N2,N2,N6,N6-tetrakis(2-methoxyethyl)-8-(4-methoxypiperidin-1-yl)-N4-methyl-N4-(2-(pyridin-2-yl)ethyl)pyrimido[5,4-d]pyrimidine-2,4,6-triamine] |
| < 100 | COCCN(CCOC)c1nc(N2CCN(C)C(=O)C2)c2nc(N(CCOC)CCOC)nc(N(C)Cc3cccc(C#N)c3)c2n1 [Compound 237, 3-(((2,6-bis(bis(2-methoxyethyl)amino)-8-(4-methyl-3-oxopiperazin-1-yl)pyrimido[5,4-d]pyrimidin-4-yl)(methyl)amino)methyl)benzonitrile] |
| < 100 | COCCN(CCOC)c1nc(N2CCC(F)(F)CC2)c2nc(N(CCOC)CCOC)nc(N3CCC(OC)CC3)c2n1 [Compound 200, 4-(4,4-difluoropiperidin-1-yl)-N2,N2,N6,N6-tetrakis(2-methoxyethyl)-8-(4-methoxypiperidin-1-yl)pyrimido[5,4-d]pyrimidine-2,6-diamine] |
| 500 to 1000 | COCCN(CCOC)c1nc(N2CCC(OC)CC2)c2nc(N(CCOC)CCOC)nc(NCCCO)c2n1 [Compound 175, 3-((2,6-bis(bis(2-methoxyethyl)amino)-8-(4-methoxypiperidin-1-yl)pyrimido[5,4-d]pyrimidin-4-yl)amino)propan-1-ol] |
| < 100 | COCCN(CCOC)c1nc(N2CC(O)(C(F)(F)F)C2)c2nc(N(CCOC)CCOC)nc(N3CC(O)(C(F)(F)F)C3)c2n1 [Compound 11, 1,1′-(2,6-bis(bis(2-methoxyethyl)amino)pyrimido[5,4-d]pyrimidine-4,8-diyl)bis(3-(trifluoromethyl)azetidin-3-ol)] |
